Data reported in patent US20100040703A1, “USE OF NITRIC OXIDE” (priority 2008, published 2010).

Test system: Influenza A/Victoria/H3N2
Assay: Plaque assay on MDCK cells after exposure of virions to 160 ppm NO gas
Assay type: cell-based
Conditions: for plaques (infectious virus titre): 160 ppm gNO

Nitric oxide [NO-gas]
plaques (infectious virus titre) (exposure 0 mins): 250 ± 14 pfu/ml | plaques (infectious virus titre) (exposure 60 mins): 50 ± 11 pfu/ml | plaques (infectious virus titre) (exposure 120 mins): 43 ± 10 pfu/ml | plaques (infectious virus titre) (exposure 180 mins): 29 ± 14 pfu/ml | less transmissible into host cells than the control group (virions exposed to 160 ppm NO before incubation with host cells): at least 80%
